Reference: PubChem BioAssay (NCI)
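In this assay, cells in 96-well plates receive the compound at five concentrations for 48 hours. Endpoints are linearly interpolated between the surrounding concentrations. The concentration for 50% growth inhibition is given as GI50. TGI: concentration producing complete growth inhibition.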

Assays:
Assay in all cases: DTP human tumour cell line panel, 48 h
[1] = tested on: 786-0 renal
[2] = tested on: A498 renal
[3] = tested on: A549 NSCLC
[4] = tested on: ACHN renal
[5] = tested on: BT-549 breast
[6] = tested on: CAKI-1 renal
[7] = tested on: CCRF-CEM leukemia
[8] = tested on: COLO 205 colon
[9] = tested on: DU-145 prostate
[10] = tested on: EKVX NSCLC
[11] = tested on: HCC-2998 colon
[12] = tested on: HCT-116 colon
[13] = tested on: HCT-15 colon
[14] = tested on: HL-60(TB) leukemia
[15] = tested on: HOP-62 NSCLC
[16] = tested on: HOP-92 NSCLC
[17] = tested on: HS 578T breast
[18] = tested on: HT29 colon
[19] = tested on: IGROV1 ovarian
[20] = tested on: K-562 leukemia
[21] = tested on: KM12 colon
[22] = tested on: LOX IMVI melanoma
[23] = tested on: M14 melanoma
[24] = tested on: MALME-3M melanoma
[25] = tested on: MCF7 breast
[26] = tested on: MDA-MB-231 breast
[27] = tested on: MDA-MB-435
[28] = tested on: MOLT-4 leukemia
[29] = tested on: NCI-H226 lung
[30] = tested on: NCI-H23 lung
[31] = tested on: NCI-H460 lung
[32] = tested on: NCI-H522 lung
[33] = tested on: NCI/ADR-RES ovarian
[34] = tested on: OVCAR-3 ovarian
[35] = tested on: OVCAR-4 ovarian
[36] = tested on: OVCAR-5 ovarian
[37] = tested on: OVCAR-8 ovarian
[38] = tested on: PC-3 prostate
[39] = tested on: RPMI-8226 leukemia
[40] = tested on: RXF 393 renal
[41] = tested on: SF-268 CNS
[42] = tested on: SF-295 CNS
[43] = tested on: SF-539 CNS
[44] = tested on: SK-MEL-2 melanoma
[45] = tested on: SK-MEL-28 melanoma
[46] = tested on: SK-MEL-5 melanoma
[47] = tested on: SK-OV-3 ovarian
[48] = tested on: SN12C renal
[49] = tested on: SNB-19 CNS
[50] = tested on: SNB-75 CNS
[51] = tested on: SR leukemia
[52] = tested on: SW-620 colon
[53] = tested on: T-47D breast
[54] = tested on: TK-10 renal
[55] = tested on: U251 CNS
[56] = tested on: UACC-257 melanoma
[57] = tested on: UACC-62 melanoma
[58] = tested on: UO-31 renal
[59] = tested on: MDA-N

Structure (SMILES): Nc1ncnc2occ(-c3ccc(NC(=O)Nc4cccc(C(F)(F)F)c4)cc3)c12
- GI50 [1]: 4.46 µM
- TGI [1]: 10 µM
- GI50 [2]: 0.422 µM
- TGI [2]: 3.22 µM
- GI50 [3]: 4.73 µM
- TGI [3]: 14.9 µM
- GI50 [4]: 1.4 µM
- TGI [4]: 12.1 µM
- GI50 [5]: 4.32 µM
- TGI [5]: 10.5 µM
- GI50 [6]: 2.29 µM
- TGI [6]: 13 µM
- GI50 [7]: 3.51 µM
- TGI [7]: 20.1 µM
- GI50 [8]: 4.53 µM
- TGI [8]: 9.16 µM
- GI50 [9]: 4.82 µM
- TGI [9]: 16.1 µM
- GI50 [10]: 4.46 µM
- TGI [10]: 14.5 µM
- GI50 [11]: 6.11 µM
- TGI [11]: 14.3 µM
- GI50 [12]: 2.98 µM
- TGI [12]: 16 µM
- GI50 [13]: 4.24 µM
- TGI [13]: 18.2 µM
- GI50 [14]: 5.1 µM
- TGI [14]: 14.2 µM
- GI50 [15]: 5.09 µM
- TGI [15]: 10 µM
- GI50 [16]: 3.43 µM
- TGI [16]: 10.1 µM
- GI50 [17]: 0.973 µM
- TGI [17]: 6.74 µM
- GI50 [18]: 3.12 µM
- TGI [18]: 10.6 µM
- GI50 [19]: 2.02 µM
- TGI [19]: 10.2 µM
- GI50 [20]: 1.3 µM
- TGI [20]: 25 µM
- GI50 [21]: 0.123 µM
- TGI [21]: 4.51 µM
- GI50 [22]: 2.57 µM
- TGI [22]: 12.1 µM
- GI50 [23]: 3.2 µM
- TGI [23]: 9.19 µM
- GI50 [24]: 5.74 µM
- TGI [24]: 13.3 µM
- GI50 [25]: 2.34 µM
- TGI [25]: 19.3 µM
- GI50 [26]: 5.8 µM
- TGI [26]: 16.4 µM
- GI50 [27]: 2.22 µM
- TGI [27]: 6.48 µM
- GI50 [28]: 3.54 µM
- TGI [28]: 15.5 µM
- GI50 [29]: 0.367 µM
- TGI [29]: 6.1 µM
- GI50 [30]: 4.1 µM
- TGI [30]: 13.3 µM
- GI50 [31]: 3.46 µM
- TGI [31]: 9.3 µM
- GI50 [32]: 4.18 µM
- TGI [32]: 8.92 µM
- GI50 [33]: 4.51 µM
- TGI [33]: 16.2 µM
- GI50 [34]: 4.79 µM
- TGI [34]: 9.72 µM
- GI50 [35]: 3.19 µM
- TGI [35]: 17.7 µM
- GI50 [36]: 5.5 µM
- TGI [36]: 13.3 µM
- GI50 [37]: 2.85 µM
- TGI [37]: 8.26 µM
- GI50 [38]: 4.94 µM
- TGI [38]: 13.3 µM
- GI50 [39]: 4.86 µM
- TGI [39]: 15.3 µM
- GI50 [40]: 1.71 µM
- TGI [40]: 5.39 µM
- GI50 [41]: 3.54 µM
- TGI [41]: 9.83 µM
- GI50 [42]: 3.76 µM
- TGI [42]: 15.7 µM
- GI50 [43]: 0.702 µM
- TGI [43]: 7.1 µM
- GI50 [44]: 5.39 µM
- TGI [44]: 11.6 µM
- GI50 [45]: 4.89 µM
- TGI [45]: 12.7 µM
- GI50 [46]: 3.06 µM
- TGI [46]: 6.21 µM
- GI50 [47]: 4.91 µM
- TGI [47]: 17.9 µM
- GI50 [48]: 2.01 µM
- TGI [48]: 18 µM
- GI50 [49]: 7.69 µM
- TGI [49]: 21.3 µM
- GI50 [50]: 3.77 µM
- TGI [50]: 9.69 µM
- GI50 [51]: 0.957 µM
- TGI [51]: 8.59 µM
- GI50 [52]: 6.77 µM
- TGI [52]: 20.2 µM
- GI50 [53]: 5.22 µM
- TGI [53]: 15 µM
- GI50 [54]: 2.9 µM
- TGI [54]: 11.8 µM
- GI50 [55]: 5.27 µM
- TGI [55]: 16.5 µM
- GI50 [56]: 4.24 µM
- TGI [56]: 8.86 µM
- GI50 [57]: 3.02 µM
- TGI [57]: 6.54 µM
- GI50 [58]: 2.88 µM
- TGI [58]: 11 µM

Structure (SMILES): Cc1cc(O)c(C(O)c2ccccn2)cc1O (stereo unspecified)
- TGI [1]: 34.5 µM
- TGI [3]: > 100 µM
- TGI [4]: 18.4 µM
- TGI [6]: 24.2 µM
- TGI [7]: 38.4 µM
- TGI [8]: 23.4 µM
- TGI [9]: > 100 µM
- TGI [10]: 36.5 µM
- TGI [11]: 70.3 µM
- TGI [12]: 31.2 µM
- TGI [13]: 34.1 µM
- TGI [14]: 53 µM
- TGI [15]: > 100 µM
- TGI [17]: > 100 µM
- TGI [18]: 44 µM
- TGI [19]: > 100 µM
- TGI [20]: > 100 µM
- TGI [21]: 82.3 µM
- TGI [22]: 30.8 µM
- TGI [23]: 38.4 µM
- TGI [24]: 40.1 µM
- TGI [25]: 43.8 µM
- TGI [26]: 33.3 µM
- TGI [27]: 35.3 µM
- TGI [59]: 36.2 µM
- TGI [28]: > 100 µM
- TGI [30]: 42.6 µM
- TGI [31]: > 100 µM
- TGI [32]: 14.7 µM
- TGI [33]: 72.6 µM
- TGI [34]: 28.6 µM
- TGI [36]: 33.8 µM
- TGI [37]: 40.8 µM
- TGI [38]: 29.1 µM
- TGI [39]: 67.4 µM
- TGI [40]: 30.2 µM
- TGI [41]: > 100 µM
- TGI [42]: > 100 µM
- TGI [43]: > 100 µM
- TGI [45]: 33.5 µM
- TGI [46]: 38.4 µM
- TGI [48]: 43.7 µM
- TGI [49]: > 100 µM
- TGI [50]: 31.9 µM
- TGI [51]: 10.2 µM
- TGI [52]: 41.1 µM
- TGI [54]: 31.8 µM
- TGI [55]: > 100 µM
- TGI [57]: 28.7 µM
- TGI [58]: 33.5 µM
